Assay results taken from patent US20260226402A1, “IMPROVED MICROBIAL GROWTH MEDIA” (Becton, Dickinson and Company, priority 2023, published 2026).

What was measured:
[1] = test system: yeast and other microorganisms
Description: (§1) TTD testing was performed using 28 organisms with a target CFU of 10-100 in blood volumes of 0 or 0.5 mL, organism dependent, 3 mL, and 10 mL. The organisms tested are illustrated in FIG. 20. Four different concentrations of iron provided as ferric ammonium citrate (0 g/L, 0.01 g/L, 0.035 g/L, and 0.06 g/L) in the media otherwise as described in Example 1, and three different concentrations of oxygen (47%, 54%, and 60%) were tested. FIG. 21 illustrates the combination of conditions tested. The testing was run in replicates of three. Prior to the day of testing, the bottles were racked and labeled, and the organisms were sub-cultured accordingly. Each organism to be tested was grown overnight on an appropriate plated medium. Each organism was carefully checked for purity. […] The organism is then re-cultured. 0.1 mL of the final organism dilution was dispensed and spread on the appropriate agar for plate counts. Using aseptic technique, each bottle containing 30 ml of microbial growth media was amended with 0, 0.5, 3, or 10 mL of bagged human blood using the appropriate syringe and needle. Paired sets were inoculated with blood from the same donor unit at the same time. The bottles were then inoculated with 0.1 mL of the appropriate organism. After inoculation, the bottles were loaded onto a BACTEC FX instrument using a standard protocol length of 120 hours. Paired bottles were entered into the FX at the same time in adjacent positions. […] The data from each experiment was organized for statistical testing via a general linear model analysis of variance (ANOVA). Blood volumes of 0 or 0.5, 3, and 10 mL were recoded as 0, 3, and 10 mL to help balance the design. Additional models were assessed holding the blood volume constant. FIG. 56 illustrates the results of the ANOVA analyzing the effects of the tested conditions on TTD. FIG. 57 illustrates the results of the ANOVA parameter estimates and prediction equation. There was an expectation that only the yeast category would show a significant effect with the iron addition. Other categories were monitored to ensure no adverse effects.

[2] = test system: Candida glabrata; experiment: TTD testing with varied iron and O2 (Example 2); format: cell-based
Description: as §1

[3] = test system: Candida albicans; experiment: TTD testing with varied iron and O2 (Example 2); format: cell-based
Description: as §1

[4] = iron 0, 0.01, 0.035, 0.06 g/L tested

Compound	optimal gaseous headspace O2 concentration for TTD [1]	effect on TTD of increasing oxygen concentration in headspace gas ([1]; from 47% to 60% O2)	optimal gaseous headspace O2 concentration for TTD ([2]; 47%, 54%, 60% O2 tested)	effect on TTD of increasing oxygen concentration in headspace gas ([2]; from 47% to 60% O2)	optimal gaseous headspace O2 concentration for TTD ([3]; 47%, 54%, 60% O2 tested)	effect on TTD of increasing oxygen concentration in headspace gas ([3]; from 47% to 60% O2)	optimal iron concentration for TTD [1, 4]	effect on TTD of increasing iron concentration in the media ([1]; iron from 0 to 0.06 g/L, blood 0/0.5, 3, 10 mL)	effect of iron on TTD, ANOVA result ([1]; yeast category, general linear model ANOVA)	optimal iron concentration for TTD [2, 4]	effect on TTD of increasing iron concentration in the media ([2]; iron from 0 to 0.06 g/L)	optimal iron concentration for TTD [3, 4]	effect on TTD of increasing iron concentration in the media ([3]; iron from 0 to 0.06 g/L)
O=O [oxygen]	about 54%	decreased the TTD	about 54%	decreased the TTD	about 54%	decreased the TTD	–	–	–	–	–	–	–
ferric ammonium citrate [iron]	–	–	–	–	–	–	about 0.035 g/L	decreased the TTD	lowers the TTD of yeasts	about 0.035 g/L	decreased the TTD	about 0.035 g/L	decreased the TTD
